13 molecules from US7915316B2, “Sulfonamides” (Allergan, Inc, priority 2005, dated 2011) can be followed below.

Each structure is given as a SMILES string.

One experiment concerns the target IP (Homo sapiens, UniProt P43119). Kind of experiment: activity at IP receptor. Conditions: Table 2.
Experiment [1] concerns the target T1, EP2 (Homo sapiens, UniProt P43116). Put plainly: EP2 receptor binding (bhEP2 / EP2 Binding). The conditions noted are these: for EC50 / EP2 Binding % Inh: Table 2; for IC50: Table 1.
Experiment [2] deals with T1, EP2. Put plainly: Ca2+ signal, EP2. Format: cell-based. Conditions: for Emax: relative to PGE2.
In experiment [3] the target is T1, EP2. Put plainly: cAMP assay. Type of experiment: cell-based.
Experiment [4] has as its target T2, EP4 (Homo sapiens, UniProt P35408). Put plainly: Ca2+ signal, EP4. Format: cell-based. Conditions: relative to PGE2.
For experiment [5], the target named is T2, EP4. Put plainly: EP4 receptor binding (bhEP4 / EP4 Binding). The conditions noted are these: for EC50 / EP4 Binding % Inh: Table 2; for IC50: Table 1.
Another experiment addresses T3, TP (Homo sapiens, UniProt P21731).
T3 sequence (P21731 1-343): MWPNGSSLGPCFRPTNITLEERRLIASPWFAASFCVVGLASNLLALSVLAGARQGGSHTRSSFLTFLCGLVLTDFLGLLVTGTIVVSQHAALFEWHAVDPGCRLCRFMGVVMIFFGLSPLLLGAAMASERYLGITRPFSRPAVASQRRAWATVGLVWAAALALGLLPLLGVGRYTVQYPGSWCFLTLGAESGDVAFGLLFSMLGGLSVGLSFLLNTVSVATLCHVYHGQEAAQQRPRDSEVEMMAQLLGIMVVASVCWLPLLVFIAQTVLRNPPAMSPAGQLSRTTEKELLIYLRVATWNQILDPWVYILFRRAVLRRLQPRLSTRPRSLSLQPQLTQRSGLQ
Put plainly: activity at TP receptor. The conditions noted are these: Table 2.

In experiment [6] the target is T1, EP2. Put plainly: functional activity at hEP2 (fhEP2). The conditions noted are these: Table 1. Type of experiment: cell-based.
In another experiment the test system is EP2 and EP4 receptors. Put plainly: in-vitro assay for binding to and activity at various prostaglandin receptors. Conditions: as compared to the FP, EP1, TP, IP and DP receptors.

T1 sequence (P43116 whole entry): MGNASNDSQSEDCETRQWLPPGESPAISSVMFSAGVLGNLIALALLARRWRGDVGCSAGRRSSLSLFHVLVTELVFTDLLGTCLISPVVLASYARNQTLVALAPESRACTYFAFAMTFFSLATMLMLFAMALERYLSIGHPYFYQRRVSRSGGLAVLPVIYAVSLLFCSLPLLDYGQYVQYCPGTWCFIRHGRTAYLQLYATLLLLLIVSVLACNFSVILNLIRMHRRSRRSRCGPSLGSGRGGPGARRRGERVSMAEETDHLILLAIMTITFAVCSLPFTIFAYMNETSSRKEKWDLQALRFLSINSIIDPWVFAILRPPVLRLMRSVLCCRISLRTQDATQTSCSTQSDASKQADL
T2 sequence (P35408 whole entry): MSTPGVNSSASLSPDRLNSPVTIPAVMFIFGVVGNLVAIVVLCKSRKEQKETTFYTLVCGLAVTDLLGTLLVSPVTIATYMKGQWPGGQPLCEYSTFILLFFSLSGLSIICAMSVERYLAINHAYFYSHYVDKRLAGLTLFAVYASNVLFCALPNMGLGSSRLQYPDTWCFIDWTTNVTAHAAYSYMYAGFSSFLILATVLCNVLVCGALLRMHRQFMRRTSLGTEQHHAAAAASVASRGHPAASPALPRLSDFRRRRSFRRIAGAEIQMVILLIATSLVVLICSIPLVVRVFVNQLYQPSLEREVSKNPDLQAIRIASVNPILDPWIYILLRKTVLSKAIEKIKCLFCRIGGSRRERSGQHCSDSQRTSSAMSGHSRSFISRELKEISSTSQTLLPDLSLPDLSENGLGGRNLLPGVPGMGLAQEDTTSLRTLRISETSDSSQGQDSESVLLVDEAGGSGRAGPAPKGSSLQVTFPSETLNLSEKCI
IP, sequence (P43119 whole entry): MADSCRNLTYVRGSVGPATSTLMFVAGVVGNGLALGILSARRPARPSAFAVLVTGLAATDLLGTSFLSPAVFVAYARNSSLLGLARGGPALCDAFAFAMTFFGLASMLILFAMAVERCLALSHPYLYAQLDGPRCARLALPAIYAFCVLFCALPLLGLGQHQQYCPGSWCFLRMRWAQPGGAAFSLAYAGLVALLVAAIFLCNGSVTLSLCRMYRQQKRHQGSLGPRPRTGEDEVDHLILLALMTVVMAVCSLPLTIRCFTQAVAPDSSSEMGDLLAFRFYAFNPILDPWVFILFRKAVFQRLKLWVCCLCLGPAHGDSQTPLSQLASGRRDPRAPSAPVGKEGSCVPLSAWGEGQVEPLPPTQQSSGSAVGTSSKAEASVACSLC

On IP, `CS(=O)(=O)N(C/C=C\CCCC(=O)O)CCOc1cc(Cl)cc(Cl)c1` displayed an IP of 403. Moreover, the EC50 on EP2 [1] turned out to be 1900 nM; at EP2 [2], 2960 nM; at EP2 [3] (Table 2, read-out: cAMP EC50), 214 nM; on EP4 [5], 2920 nM. In addition, the “EP2 Binding % Inh” value on EP2 [1] turned out to be 81%. The Emax on EP2 [2] amounted to 83%; on EP4 [4], 10%. In addition, the “EP4 Binding % Inh” value on EP4 [5] is reported as 64%. The TP on TP came out at 7008.
Regarding `CCCCCC(O)c1ccc(CN(CCCCCCC(=O)O)S(=O)(=O)c2cccs2)cc1` (centres unmarked) [7-[[4-(1-hydroxyhexyl)benzyl]thiophenesulfonylamino]heptanoic acid], the IC50 was determined as 1490 nM on EP2 [1] and 90 nM on EP4 [5]. The EC50 was 600 nM on EP2 [6] and over 10000 nM on EP2 [3] (Table 1, read-out: cAMP).
With `CC(C)(C)c1ccc(CN(CCCCCCC(=O)O)S(=O)(=O)c2cccnc2)cc1` [7-[[4-(1-t-butyl)benzyl]pyridinesulfonylamino]heptanoic acid], the EC50 turned out to be 829 nM on EP2 [1]; 591 nM at EP2 [2]; 126 nM on EP2 [3] (Table 2, read-out: cAMP EC50); 1380 nM at EP4 [5]. Moreover, the “EP2 Binding % Inh” value at EP2 [1] is 73%. Moreover, the Emax stood at 83% on EP2 [2] and 1% at EP4 [4]. Further, the “EP4 Binding % Inh” value on EP4 [5] came out at 71%.
As for `CC(C)(C)c1ccc(CN(CCCCCCC(=O)O)S(=O)(=O)c2cccs2)cc1` [7-[[4-(1-t-butyl)benzyl]thiophenelsulfonylamino]heptanoic acid], the EC50 on EP2 [1] was determined as 493 nM; at EP2 [2], 1130 nM; on EP2 [3] (Table 2, read-out: cAMP EC50), 1970 nM; on EP4 [5] it was 706 nM. Besides, on EP2 [1], the “EP2 Binding % Inh” value was 76%. Further, the Emax at EP2 [2] came out at 71%; on EP4 [4], 9%. Besides, the “EP4 Binding % Inh” value at EP4 [5] is 94%.
With `CC(C)(C)c1ccc(CN(CCCCCCC(=O)O)S(C)(=O)=O)cc1` [7-[[4-(1-t-butyl)benzyl]methanesulfonylamino]heptanoic acid], the IP result on IP was “IP = 2561”. In addition, the “EP2 Binding % Inh” value at EP2 [1] was found to be 60%. The EC50 on EP2 [2] is 2310 nM; at EP2 [3] (Table 2, read-out: cAMP EC50), 156 nM. Further, the Emax was determined as 89% at EP2 [2] and 2% on EP4 [4]. For the same molecule, at EP4 [5], the “EP4 Binding % Inh” value is reported as 41%.
As for `CCCCCC(O)c1ccc(CN(CC#CCCCC(=O)O)S(C)(=O)=O)cc1` (centres unmarked) [7-[[4-(1-hydroxyhexyl)benzyl]methanesulfonylamino]hept-5-yne-oic acid], the EC50 on EP2 [1] was found to be 5680 nM; at EP2 [2] it was 620 nM; on EP2 [3] (Table 2, read-out: cAMP EC50), 24 nM.
As to `CCCCCC(O)c1ccc(CN(Cc2ccc(OCC(=O)O)cc2)S(=O)(=O)c2cccnc2)cc1` (centres unmarked), the EC50 on EP2 [1] is 208 nM; on EP2 [2], 11 nM; on EP2 [3] (Table 2, read-out: cAMP EC50), 3.5 nM; on EP4 [5], 1320 nM. The “EP2 Binding % Inh” value at EP2 [1] came out at 97%. For the same molecule, the Emax on EP2 [2] was determined as 92%; at EP4 [4] it was 2%. In addition, the “EP4 Binding % Inh” value at EP4 [5] was 89%.
For the molecule `CCCCCC(O)c1ccc(CN(CCCCCCC(=O)O)S(=O)(=O)c2cccnc2)cc1` (centres unmarked), the IC50 was found to be 4730 nM at EP2 [1] and 546 nM at EP4 [5]. The EC50 was determined as 275 nM on EP2 [6] and 138 nM at EP2 [3] (Table 1, read-out: cAMP).
As to `CC(C)(C)c1ccc(CN(CCCCCCC(=O)O)S(=O)(=O)c2ccccc2)cc1` [7-[[4-(1-t-butyl)benzyl]benzenesulfonylamino]heptanoic acid], the EC50 on EP2 [1] was 1540 nM; on EP2 [2], 964 nM; at EP2 [3] (Table 2, read-out: cAMP EC50), 965 nM; on EP4 [5], 373 nM. In addition, the “EP2 Binding % Inh” value on EP2 [1] is 82%. The Emax at EP2 [2] was determined as 78%; at EP4 [4] it was 11%. Moreover, at EP4 [5], the “EP4 Binding % Inh” value is 99%.
For `CS(=O)(=O)N(CC#CCCCC(=O)O)CCOc1cc(Cl)cc(Cl)c1`, the IP entry on IP is given as “IP = 868”. Besides, the EC50 on EP2 [1] turned out to be 1130 nM; at EP2 [2], 1250 nM; on EP2 [3] (Table 2, read-out: cAMP EC50), 84 nM; at EP4 [5] it was 4170 nM. The “EP2 Binding % Inh” value on EP2 [1] turned out to be 87%. For the same molecule, the Emax was determined as 90% at EP2 [2] and 5% at EP4 [4]. Further, the “EP4 Binding % Inh” value at EP4 [5] is listed as 55%.
`CCCCCC(O)c1ccc(CN(CCCCCCC(=O)O)S(=O)(=O)c2ccccc2)cc1` (centres unmarked) [7-[[4-(1-hydroxyhexyl)benzyl]benzenesulfonylamino]heptanoic acid] had an EC50 on EP2 [6] of 634 nM. Besides, the IC50 at EP4 [5] came to 150 nM.
As for `CC(C)(C)c1ccc(CN(Cc2ccc(OCC(=O)O)cc2)S(=O)(=O)c2cccnc2)cc1` [4-[[4-(1-t-butyl)benzyl]pyridinesulfonylaminomethyl]phenoxyacetic acid], the EC50 on EP2 [1] worked out at 100 nM; at EP2 [2] it was 20 nM; on EP2 [3] (Table 2, read-out: cAMP EC50) it was 18 nM; on EP4 [5] it was 1340 nM. Further, the “EP2 Binding % Inh” value on EP2 [1] was found to be 93%. The Emax on EP2 [2] came to 87%; at EP4 [4] it was 0%. Also, the “EP4 Binding % Inh” value on EP4 [5] is 59%.
With `CCCCCC(O)c1ccc(CN(CCCCCCC(=O)O)S(C)(=O)=O)cc1` (centres unmarked) [Compound 12, 7-[[4-(1-Hydroxyhexyl)benzyl]methanesulfonylamino]heptanoic acid], on EP2 [1], the IC50 was found to be 1690 nM. The EC50 came to 406 nM on EP2 [6] and 16 nM at EP2 [3] (Table 1, read-out: cAMP). In the experiment on EP2 and EP4 receptors, the “selectivity at EP2 and EP4 receptors” value was “selective at the EP2 and EP4 receptors”.

One may read the Emax as the size of the effect at its maximum, as opposed to the concentration needed. By IC50 is commonly meant the concentration at which inhibition is half-maximal. Low values mean inhibition by little substance, high ones a need for much substance.
